These results are taken from patent publication US20240270762A1, “PENICILLIN-BINDING PROTEIN INHIBITORS” (priority 2021, published 2024).

In brackets after ≈: the same amount, converted by molar mass.

The subject of one assay is N. gonorrhoeae MS11. The assay is described as follows: Liquid broth MIC in Fastidious broth. The conditions noted are these: Neisseria gonorrhoeae, MS11, read-out: Minimum Inhibitory Concentration, MS11.
The target of assay [1] is T1, PBP1a from Acinetobacter baumannii (ATCC 19606) (Acinetobacter baumannii, UniProt A0ABX6CK30).
T1 sequence (A0ABX6CK30 1-851): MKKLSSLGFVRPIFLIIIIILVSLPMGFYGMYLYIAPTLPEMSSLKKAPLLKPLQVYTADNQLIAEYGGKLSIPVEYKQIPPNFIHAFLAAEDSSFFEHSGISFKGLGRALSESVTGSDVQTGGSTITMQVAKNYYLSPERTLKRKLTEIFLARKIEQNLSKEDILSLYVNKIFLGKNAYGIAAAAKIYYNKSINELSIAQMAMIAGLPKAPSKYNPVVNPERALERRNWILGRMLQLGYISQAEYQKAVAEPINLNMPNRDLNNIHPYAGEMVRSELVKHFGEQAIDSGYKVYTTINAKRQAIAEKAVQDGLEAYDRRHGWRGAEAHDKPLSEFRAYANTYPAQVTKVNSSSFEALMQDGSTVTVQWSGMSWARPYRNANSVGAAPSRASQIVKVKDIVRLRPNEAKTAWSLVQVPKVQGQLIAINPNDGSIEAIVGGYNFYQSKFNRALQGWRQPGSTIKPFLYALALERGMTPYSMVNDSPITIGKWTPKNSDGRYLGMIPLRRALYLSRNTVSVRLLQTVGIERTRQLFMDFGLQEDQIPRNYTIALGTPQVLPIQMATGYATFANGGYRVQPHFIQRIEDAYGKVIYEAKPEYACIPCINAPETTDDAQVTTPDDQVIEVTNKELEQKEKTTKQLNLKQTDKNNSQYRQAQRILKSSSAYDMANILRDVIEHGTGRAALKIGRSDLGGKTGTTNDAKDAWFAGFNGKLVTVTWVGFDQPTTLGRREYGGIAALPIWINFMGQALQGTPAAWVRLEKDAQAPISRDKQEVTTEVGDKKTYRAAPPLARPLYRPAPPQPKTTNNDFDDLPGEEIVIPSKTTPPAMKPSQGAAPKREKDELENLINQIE
The assay is described as follows: Bocillin-FL fluorescence polarization competition binding, A. baumannii PBP1a. The following applies: fluorescence polarization competition binding assay using Bocillin-FL; read-out: A. baumannii PBP1a Potency. Put shortly: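 Purified PBP was preincubated with inhibitor (E. coli PBP3 1.5 μM, 30 min; P. aeruginosa PBP3 0.75 μM, A. baumannii PBP3 0.2 μM and PBP1a 1 μM, 15 min), then Bocillin-FL (0.1 μM; 0.05 μM for PBP1a) added and FP read up to 60 min. EC50 = 50% loss of bound probe.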

In another assay the test system is N. gonorrhoeae WHO K. The assay is described as follows: Liquid broth MIC in Fastidious broth. The following applies: Neisseria gonorrhoeae, read-out: Minimum Inhibitory Concentration, WHO K.
The next assay has as its system N. gonorrhoeae CDC-0197. The experiment in a line: Liquid broth MIC in Fastidious broth. The conditions noted are these: Neisseria gonorrhoeae, CDC0197, read-out: Minimum Inhibitory Concentration, CDC-0197.
A further assay deals with N. gonorrhoeae FA1090. The experiment in a line: Liquid broth MIC in Fastidious broth. The conditions noted are these: Neisseria gonorrhoeae, FA1090, read-out: Minimum Inhibitory Concentration, FA 1090.
In the next assay the test system is N. gonorrhoeae WHO Q. The experiment in a line: Liquid broth MIC in Fastidious broth. The following applies: Neisseria gonorrhoeae, read-out: Minimum Inhibitory Concentration, WHO Q.
The next assay has as its system N. gonorrhoeae WHO M. The assay is described as follows: Liquid broth MIC in Fastidious broth. The conditions noted are these: Neisseria gonorrhoeae, read-out: Minimum Inhibitory Concentration, WHO M.
A further assay relates to N. gonorrhoeae WHO L. The assay is described as follows: Liquid broth MIC in Fastidious broth. The conditions noted are these: Neisseria gonorrhoeae, read-out: Minimum Inhibitory Concentration, WHO L.

Turning to `O=C(NCCCN1CCN(C(=O)NC(C(=O)N[C@H]2Cc3ccc(F)c(C(=O)O)c3OB2O)c2cc(F)c(O)c(O)c2Cl)C1=O)Nc1ccncc1` (stereo partly drawn) [Example 285, (3R)-3-(2-(2-chloro-5-fluoro-3,4-dihydroxyphenyl)-2-(2-oxo-3-(3-(3-(pyridin-4-yl)ureido)propyl)imidazolidine-1-carboxamido)acetamido)-7-fluoro-2-hydroxy-3,4-dihydro-2H-benzo[e][1,2]oxaborinine-8-carboxylic acid], the MIC with N. gonorrhoeae MS11 is > 64 µg/mL; in the assay on N. gonorrhoeae WHO K, > 64 µg/mL; with N. gonorrhoeae CDC-0197, > 64 µg/mL; in the assay on N. gonorrhoeae FA1090, 4 to 8 µg/mL (≈ 5.47 to 10.9 µM); with N. gonorrhoeae WHO Q it was > 64 µg/mL; with N. gonorrhoeae WHO M, > 64 µg/mL. In addition, in the assay with N. gonorrhoeae WHO L, the MIC is > 64 µg/mL. In addition, in assay [1], the IC50 was > 250 µM.
With `O=C(NCCS(=O)(=O)N1CCN(C(=O)N[C@H](C(=O)N[C@H]2Cc3ccc(F)c(C(=O)O)c3OB2O)c2cc(F)c(O)c(O)c2Cl)C1=O)c1ccc(O)cc1` [Example 286, (R)-3-((S)-2-(2-chloro-5-fluoro-3,4-dihydroxyphenyl)-2-(3-((2-(4-hydroxybenzamido)ethyl)sulfonyl)-2-oxoimidazolidine-1-carboxamido)acetamido)-7-fluoro-2-hydroxy-3,4-dihydro-2H-benzo[e][1,2]oxaborinine-8-carboxylic acid], the MIC with N. gonorrhoeae MS11, with N. gonorrhoeae WHO K, in the assay on N. gonorrhoeae CDC-0197, in the assay on N. gonorrhoeae FA1090, with N. gonorrhoeae WHO Q and in the assay with N. gonorrhoeae WHO M was > 64 µg/mL throughout. Further, the MIC with N. gonorrhoeae WHO L is > 64 µg/mL. Also, in assay [1], the IC50 was > 250 µM.
As to `O=C(NCCS(=O)(=O)N1CCN(C(=O)N[C@@H](C(=O)N[C@H]2Cc3ccc(F)c(C(=O)O)c3OB2O)c2cc(F)c(O)c(O)c2Cl)C1=O)c1ccc(O)cc1` [Example 287, (R)-3-((R)-2-(2-chloro-5-fluoro-3,4-dihydroxyphenyl)-2-(3-((2-(4-hydroxybenzamido)ethyl)sulfonyl)-2-oxoimidazolidine-1-carboxamido)acetamido)-7-fluoro-2-hydroxy-3,4-dihydro-2H-benzo[e][1,2]oxaborinine-8-carboxylic acid], the MIC lay in the range of 4 to 8 µg/mL (≈ 5.12 to 10.2 µM) with N. gonorrhoeae MS11; 16 to 32 µg/mL (≈ 20.5 to 40.9 µM) in the assay on N. gonorrhoeae WHO K; 16 to 32 µg/mL (≈ 20.5 to 40.9 µM) with N. gonorrhoeae CDC-0197; 1 to 2 µg/mL (≈ 1.28 to 2.56 µM) with N. gonorrhoeae FA1090; 4 to 8 µg/mL (≈ 5.12 to 10.2 µM) in the assay with N. gonorrhoeae WHO Q; 4 to 8 µg/mL (≈ 5.12 to 10.2 µM) in the assay with N. gonorrhoeae WHO M. Moreover, the MIC with N. gonorrhoeae WHO L was > 64 µg/mL. The IC50 in assay [1] was > 250 µM.
For the molecule `O=C(NCCS(=O)(=O)N1CCN(C(=O)NC(C(=O)N[C@H]2Cc3ccc(F)c(C(=O)O)c3OB2O)c2cc(F)c(O)c(O)c2Cl)C1=O)c1ccncc1` (stereo partly drawn) [Example 288, (3R)-3-(2-(2-chloro-5-fluoro-3,4-dihydroxyphenyl)-2-(3-((2-(isonicotinamido)ethyl)sulfonyl)-2-oxoimidazolidine-1-carboxamido)acetamido)-7-fluoro-2-hydroxy-3,4-dihydro-2H-benzo[e][1,2]oxaborinine-8-carboxylic acid], the MIC in the assay with N. gonorrhoeae MS11 lay in the range of 4 to 8 µg/mL (≈ 5.22 to 10.4 µM); in the assay on N. gonorrhoeae WHO K, 16 to 32 µg/mL (≈ 20.9 to 41.7 µM); with N. gonorrhoeae CDC-0197 it was 16 to 32 µg/mL (≈ 20.9 to 41.7 µM); in the assay with N. gonorrhoeae FA1090, 1 to 2 µg/mL (≈ 1.3 to 2.61 µM); in the assay with N. gonorrhoeae WHO Q it was 16 to 32 µg/mL (≈ 20.9 to 41.7 µM); in the assay with N. gonorrhoeae WHO M, 4 to 8 µg/mL (≈ 5.22 to 10.4 µM). In addition, the MIC in the assay with N. gonorrhoeae WHO L was > 64 µg/mL. The IC50 in assay [1] was > 250 µM.
As for `O=C(NCCS(=O)(=O)N1CCN(C(=O)NC(C(=O)N[C@H]2Cc3ccc(F)c(C(=O)O)c3OB2O)c2cc(F)c(O)c(O)c2Cl)C1=O)Nc1ccc(O)cc1` (stereo partly drawn) [Example 289, (3R)-3-(2-(2-chloro-5-fluoro-3,4-dihydroxyphenyl)-2-(3-((2-(3-(4-hydroxyphenyl)ureido)ethyl)sulfonyl)-2-oxoimidazolidine-1-carboxamido)acetamido)-7-fluoro-2-hydroxy-3,4-dihydro-2H-benzo[e][1,2]oxaborinine-8-carboxylic acid], the MIC in the assay with N. gonorrhoeae MS11 lay within 4 to 8 µg/mL (≈ 5.02 to 10 µM); with N. gonorrhoeae WHO K it was 16 to 32 µg/mL (≈ 20.1 to 40.2 µM); in the assay on N. gonorrhoeae CDC-0197, 16 to 32 µg/mL (≈ 20.1 to 40.2 µM); in the assay on N. gonorrhoeae FA1090, 1 to 2 µg/mL (≈ 1.25 to 2.51 µM); in the assay on N. gonorrhoeae WHO Q, 4 to 8 µg/mL (≈ 5.02 to 10 µM); with N. gonorrhoeae WHO M it was 4 to 8 µg/mL (≈ 5.02 to 10 µM). Further, the MIC with N. gonorrhoeae WHO L was > 64 µg/mL. Further, the IC50 in assay [1] is > 250 µM.
Take `O=C(NCCS(=O)(=O)N1CCN(C(=O)N[C@@H](C(=O)N[C@H]2Cc3ccc(F)c(C(=O)O)c3OB2O)c2cc(F)c(O)c(O)c2Cl)C1=O)Nc1ccncc1` [Example 290, (R)-3-((R)-2-(2-chloro-5-fluoro-3,4-dihydroxyphenyl)-2-(2-oxo-3-((2-(3-(pyridin-4-yl)ureido)ethyl)sulfonyl)imidazolidine-1-carboxamido)acetamido)-7-fluoro-2-hydroxy-3,4-dihydro-2H-benzo[e][1,2]oxaborinine-8-carboxylic acid]: the MIC in the assay with N. gonorrhoeae MS11 was 16 to 32 µg/mL (≈ 20.5 to 40.9 µM); in the assay with N. gonorrhoeae WHO K, > 64 µg/mL; in the assay with N. gonorrhoeae CDC-0197 it was 16 to 32 µg/mL (≈ 20.5 to 40.9 µM); with N. gonorrhoeae FA1090 it was 1 to 2 µg/mL (≈ 1.28 to 2.56 µM); with N. gonorrhoeae WHO Q it was 16 to 32 µg/mL (≈ 20.5 to 40.9 µM); in the assay with N. gonorrhoeae WHO M it was 16 to 32 µg/mL (≈ 20.5 to 40.9 µM). Also, the MIC in the assay with N. gonorrhoeae WHO L was > 64 µg/mL. Moreover, in assay [1], the IC50 is > 250 µM.
Turning to `O=C(NCCCS(=O)(=O)N1CCN(C(=O)NC(C(=O)N[C@H]2Cc3ccc(F)c(C(=O)O)c3OB2O)c2cc(F)c(O)c(O)c2Cl)C1=O)Nc1ccncc1` (stereo partly drawn) [Example 291, (3R)-3-(2-(2-chloro-5-fluoro-3,4-dihydroxyphenyl)-2-(2-oxo-3-((3-(3-(pyridin-4-yl)ureido)propyl)sulfonyl)imidazolidine-1-carboxamido)acetamido)-7-fluoro-2-hydroxy-3,4-dihydro-2H-benzo[e][1,2]oxaborinine-8-carboxylic acid], the MIC with N. gonorrhoeae MS11 was 16 to 32 µg/mL (≈ 20.1 to 40.2 µM); in the assay on N. gonorrhoeae WHO K, > 64 µg/mL; in the assay on N. gonorrhoeae CDC-0197 it was 16 to 32 µg/mL (≈ 20.1 to 40.2 µM); in the assay on N. gonorrhoeae FA1090, 4 to 8 µg/mL (≈ 5.03 to 10.1 µM); in the assay on N. gonorrhoeae WHO Q, 16 to 32 µg/mL (≈ 20.1 to 40.2 µM); in the assay with N. gonorrhoeae WHO M it was 16 to 32 µg/mL (≈ 20.1 to 40.2 µM). Besides, the MIC in the assay on N. gonorrhoeae WHO L was > 64 µg/mL. For the same molecule, the IC50 in assay [1] is > 250 µM.
For `O=C(O)c1c(F)ccc2c1OB(O)[C@@H](NC(=O)C(NC(=O)N1CCN(Cc3ccc(O)c(O)c3Cl)C(=O)C1=O)c1cc(F)c(O)c(O)c1Cl)C2` (stereo partly drawn) [Example 292, (3R)-3-(2-(4-(2-chloro-3,4-dihydroxybenzyl)-2,3-dioxopiperazine-1-carboxamido)-2-(2-chloro-5-fluoro-3,4-dihydroxyphenyl)acetamido)-7-fluoro-2-hydroxy-3,4-dihydro-2H-benzo[e][1,2]oxaborinine-8-carboxylic acid], the MIC was > 64 µg/mL with N. gonorrhoeae MS11; > 64 µg/mL with N. gonorrhoeae WHO K; > 64 µg/mL in the assay on N. gonorrhoeae CDC-0197; 16 to 32 µg/mL (≈ 21.6 to 43.3 µM) in the assay with N. gonorrhoeae FA1090; > 64 µg/mL in the assay with N. gonorrhoeae WHO Q; > 64 µg/mL in the assay on N. gonorrhoeae WHO M. Also, the MIC in the assay on N. gonorrhoeae WHO L was > 64 µg/mL. Moreover, the IC50 in assay [1] is > 250 µM.
As to `O=C(O)c1c(F)ccc2c1OB(O)[C@@H](NC(=O)C(NC(=O)N1CCN(C3CCN(C(=O)c4cccc(O)c4)CC3)C(=O)C1=O)c1cc(F)c(O)c(O)c1Cl)C2` (stereo partly drawn) [Example 293, (3R)-3-(2-(2-chloro-5-fluoro-3,4-dihydroxyphenyl)-2-(4-(1-(3-hydroxybenzoyl)piperidin-4-yl)-2,3-dioxopiperazine-1-carboxamido)acetamido)-7-fluoro-2-hydroxy-3,4-dihydro-2H-benzo[e][1,2]oxaborinine-8-carboxylic acid], the MIC with N. gonorrhoeae MS11 was 16 to 32 µg/mL (≈ 20.4 to 40.7 µM); with N. gonorrhoeae WHO K it was > 64 µg/mL; with N. gonorrhoeae CDC-0197, > 64 µg/mL; in the assay with N. gonorrhoeae FA1090, 1 to 2 µg/mL (≈ 1.27 to 2.54 µM); in the assay on N. gonorrhoeae WHO Q, > 64 µg/mL; in the assay on N. gonorrhoeae WHO M it was 16 to 32 µg/mL (≈ 20.4 to 40.7 µM). For the same molecule, the MIC in the assay with N. gonorrhoeae WHO L was > 64 µg/mL. In addition, in assay [1], the IC50 was > 250 µM.
